US9914735B2, “Heteroaryl Syk inhibitors” (Boehringer Ingelheim International GmbH, priority 2014, dated 2018)
Where two headings read alike, the source gives them in different places.

Legend:
[1] = target: Recombinant human Aurora B (amino acids 1-344) (Homo sapiens (Human), UniProt Q96GD4); experiment: Aurora B kinase test (ADP Glo luminescence); format: biochemical
Procedure: The activity of the Aurora B kinase protein was determined using the ADP Glo® Luminescence Kinase test (Promega; V9103X).
Serial Dilution is done in 1:10 steps in 100% DMSO.
Then 20 μl Kinase detection mix (Detection Buffer #V913B Promega; Kinase Detection Substrate #V914B Promega) were added and incubated for 40 minutes at room temperature.
The output file of the reader is a csv file that contains the well number and measured RLU. For data evaluation and calculation, the measurement of the negative control was set as 0% ctrl and the measurement of the positive control was set as 100% ctrl. Based on this values the % value for the measurement of each substance concentration was calculated using an Assay Explorer software (Accelrys). Normally, the % ctrl values calculated are between 0% and 100% values but may also occur outside these limits in individual cases based on variability or compound characteristics. The IC50 values were calculated from the % ctrl values using Assay Explorer software. Calculation: [y=(a−d)/(1+(x/c)^b)+d], a=low value, d=high value; x=conc M; c=IC50 M; b=hill; y=% ctrl.

[2] = target: FLT3 (Homo sapiens (Human), UniProt P36888); experiment: FLT3 kinase test (Z'-LYTE); format: biochemical; details: read-out: IC50 in μM (FLT3-Inhibition)
Procedure: The activity of FLT3 is measured using the Z′-LYTETM assay technology from Invitrogen (#PV3191)
The reaction is started by addition of 2.5 μl of the 4×ATP solution.
Positive controls are reaction mixtures containing no test compound; negative controls (blanks) are reaction mixtures containing no kinase. As a further control, the phosphopeptide solution is added to wells without kinase (=100% phosphorylation control).
The reaction is performed for 1 h at room temperature before 5 μl of the development solution is added. After a further incubation for 1 h at room temperature 5 μl of the stop reagent is added.
The output text file is evaluated in an “MS-Excel—VB-Makro” and “GraphPadPrism” (Version 5) (GraphPad Software Inc.) is used to calculate the results. Data for the inhibition of FLT3 are reported in M. data for the inhibition of the protease are reported in % CTL.

[3] = target: Human GSK3beta (Homo sapiens (Human), UniProt P49841); experiment: GSK 3beta kinase test (Z'-LYTE); format: biochemical; details: read-out: IC50 in μM (GSK3beta-Inhibition)
Procedure: Human GSK3beta (expressed and prified from SF21 cells) is obtained from the University Dundee/Scotland (Dr. James Hastie—Dept. of Biochemistry) in 50 mM Tris (pH7.5); 150 mM NaCl; 0.1 mM EGTA, 270 mM Succrose, 0.1% β-mercaptoethanol, 1 mM benzamidine, 0.2 mM PMSF; sequence see below). The enzyme is diluted to 3.56 μM (168 μg/ml) in enzyme dilution buffer and 6 μl aliquots are stored at −80° C.
The activity of GSK3 kinase protein is measured using the Z′-LYTETM assay technology from Invitrogen (# PV3324).
The assay is performed in 384 black plates from Corning (#3676) in a final volume of 10 μl by adding 5 μl of kinase peptide mix and 2.5 μl of compound dilution. The reaction is started by addition of 2.5 μl of the 4×ATP solution.
Positive controls are reaction mixtures containing no test compound; negative controls (blanks) are reaction mixtures containing no ATP. As a further control, the phosphopeptide solution is added to wells without kinase and without ATP (=100% phosphorylation control).
The non inhibited kinase reaction will result in a phosphorylation corresponding to 20%-30% of the phosphorylation control.
The reaction is performed 1 h at room temperature. After 1h 5 μl of the development solution is added. After a further incubation for 1 h at room temperature 5 μl of the stop reagent is added. Finally the plates are read on a Flex Station II 384 (Molecular Devices).
The output text file is evaluated in an “MS-Excel—VB-Makro” and “GraphPadPrism” (Version 5) (GraphPad Software Inc.) is used to calculate the results. Data for the inhibition of GSK3beta are reported in M. data for the inhibition of the protease are reported in % CTL.

[4] = Human liver microsomal stability test; format: in vitro ADME; details: for microsomal stability Cl [% Qh]: human liver microsomes, Qh = liver blood flow
Procedure: The metabolic degradation for a specific SYK-inhibitor is performed at 37° C. with pooled human liver microsomes (human liver microsomes are commercially available as “BD UltraPool™” by Corning Life Sciences, Fogostraat 12, 1060 LJ Amsterdam, The Netherlands). The final incubation volume of 100 μl per time point contains TRIS buffer pH 7.6 at RT (0.1 M), magnesium chloride (5 mM), microsomal protein (1 mg/ml) and the test compound at a final concentration of 1 μM.
Following a short preincubation period at 37° C., the reaction is initiated by addition of beta-nicotinamide adenine dinucleotide phosphate in its reduced form (NADPH, 1 mM) and terminated by transfering an aliquot into solvent after different time points. Additionally, the NADPH-independent degradation is monitored in incubations without NADPH, terminated at the last time point.
The quenched (terminated) incubations are then pelleted by centrifugation (10000 g, 5 min).
An aliquot of the supernatant is assayed by LC-MS/MS for the remaining amount of parent compound. The half-life (t1/2 INVITRO) is determined by the slope of the semilogarithmic plot of the concentration-time profile.
The intrinsic clearance (CL_[…]) is calculated by considering the amount of protein in the incubation: CL_[…][μl/min/mg protein]=(Ln 2/(t1/2 INVITRO[min]*protein content[mg/ml]))*1000
The protein content [mg/ml] was determined with the “Bicinchoninic Acid Kit” of Sigma Aldrich (commercially available).
The upscaled intrinsic Clearance (CL_UP_INT) is calculated by considering the liver weight [g liver/kg body weight] and the microsomal recovery [mg protein/g liver]: CL_UP_INT[ml/min/kg]=0.001*CL_[…]*liver weight*microsomal recovery • with microsomal recovery=45 mg protein/g liver • with liver weight=25.7 g liver/kg body weight
The percent hepatic blood flow (% Qh) is finally calculated by considering the human liver blood flow Q [ml/min/kg]: % Qh[%]=((Q*CL_UP_INT)/(Q+CL_UP_INT)/Q)*100 • with liver blood flow (Q)=20.7 ml/min/kg.

[5] = read-out: IC50 in μM (AURB-Inhibition)
[6] = read-out: IC50-values with regard to AURB

FLT3, sequence (P36888 27-993): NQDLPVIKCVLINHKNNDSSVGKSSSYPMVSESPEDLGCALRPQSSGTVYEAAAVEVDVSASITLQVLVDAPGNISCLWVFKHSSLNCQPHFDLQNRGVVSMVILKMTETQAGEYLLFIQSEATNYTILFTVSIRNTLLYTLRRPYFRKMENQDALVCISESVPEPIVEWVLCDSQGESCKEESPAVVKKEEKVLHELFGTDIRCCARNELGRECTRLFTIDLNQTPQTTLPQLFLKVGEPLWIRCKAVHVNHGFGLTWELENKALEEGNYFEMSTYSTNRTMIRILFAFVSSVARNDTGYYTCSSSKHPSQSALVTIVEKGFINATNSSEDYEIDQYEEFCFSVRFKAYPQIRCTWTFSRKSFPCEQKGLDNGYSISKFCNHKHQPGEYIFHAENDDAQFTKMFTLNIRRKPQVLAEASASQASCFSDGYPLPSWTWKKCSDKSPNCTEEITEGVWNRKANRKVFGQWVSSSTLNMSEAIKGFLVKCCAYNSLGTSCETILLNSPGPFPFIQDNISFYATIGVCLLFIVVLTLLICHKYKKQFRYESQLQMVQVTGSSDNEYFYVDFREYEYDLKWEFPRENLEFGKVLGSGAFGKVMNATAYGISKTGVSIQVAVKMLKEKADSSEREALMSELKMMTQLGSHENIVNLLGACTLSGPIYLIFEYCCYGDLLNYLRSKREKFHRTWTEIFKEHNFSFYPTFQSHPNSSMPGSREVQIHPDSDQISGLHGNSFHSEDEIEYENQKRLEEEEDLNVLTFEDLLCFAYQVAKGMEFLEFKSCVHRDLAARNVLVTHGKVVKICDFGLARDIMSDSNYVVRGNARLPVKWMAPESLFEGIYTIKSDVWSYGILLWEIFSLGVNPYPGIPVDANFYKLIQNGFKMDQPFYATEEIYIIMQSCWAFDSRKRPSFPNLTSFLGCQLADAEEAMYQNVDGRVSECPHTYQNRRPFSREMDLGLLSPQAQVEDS
Recombinant human Aurora B (amino acids 1-344), sequence (Q96GD4 whole entry, the tested form may be a part): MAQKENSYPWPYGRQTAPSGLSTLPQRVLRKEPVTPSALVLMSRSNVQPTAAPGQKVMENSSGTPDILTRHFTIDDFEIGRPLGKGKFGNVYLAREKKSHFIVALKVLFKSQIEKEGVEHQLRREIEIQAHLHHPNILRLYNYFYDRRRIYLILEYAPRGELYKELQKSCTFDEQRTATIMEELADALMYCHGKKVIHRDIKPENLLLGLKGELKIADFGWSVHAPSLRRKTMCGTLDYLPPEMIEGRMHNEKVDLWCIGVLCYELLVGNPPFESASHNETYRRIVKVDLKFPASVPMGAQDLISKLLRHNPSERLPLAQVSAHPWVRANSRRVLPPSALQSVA
Human GSK3beta, sequence (P49841 whole entry): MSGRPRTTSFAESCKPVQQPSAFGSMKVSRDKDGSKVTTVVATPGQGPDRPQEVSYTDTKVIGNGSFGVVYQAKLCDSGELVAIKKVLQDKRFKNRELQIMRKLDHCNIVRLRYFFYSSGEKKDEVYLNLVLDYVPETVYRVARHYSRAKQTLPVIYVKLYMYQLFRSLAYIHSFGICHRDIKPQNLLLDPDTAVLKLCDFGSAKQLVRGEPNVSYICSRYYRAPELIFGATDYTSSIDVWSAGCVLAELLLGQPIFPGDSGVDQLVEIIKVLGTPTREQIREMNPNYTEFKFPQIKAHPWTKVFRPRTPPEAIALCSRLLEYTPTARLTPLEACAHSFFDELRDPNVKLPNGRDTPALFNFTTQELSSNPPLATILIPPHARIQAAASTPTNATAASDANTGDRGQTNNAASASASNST

C[C@@H](Oc1nc(-c2ccc(OC(F)(F)F)c(F)c2)cc2ncccc12)[C@H]1CNC(=O)C1 [1 of WO 2011/092128]
IC50 [1, 5]: 5.09 µM | IC50 [2]: 1.53 µM | IC50 [3]: > 10 µM

COc1cc(-c2cc(O[C@H](C)[C@H]3CNC(=O)C3)c3cccnc3c2)cc(OC)c1OC [2 of WO 2013/014060]
IC50 [1, 5]: 16.9 µM | IC50 [2]: 7.39 µM | IC50 [3]: > 10 µM | microsomal stability Cl [% Qh] [4]: 81 % Qh

COc1cc(-c2cc3ncccc3c(O[C@H](C)[C@H]3CNC(=O)C3)n2)cc(Cl)c1OC [7 of WO 2011/092128]
IC50 [1, 5]: 2.33 µM | IC50 [2]: 0.452 µM | IC50 [3]: > 10 µM | microsomal stability Cl [% Qh] [4]: 79 % Qh

COc1cc(-c2cc3ncccc3c(O[C@H](C)[C@H]3CNC(=O)C3)n2)cc(OC)c1Cl [8 of WO 2011/092128]
IC50 [1, 5]: > 50 µM | IC50 [2]: > 50 µM | IC50 [3]: > 10 µM | microsomal stability Cl [% Qh] [4]: 77 % Qh

COc1ccc(-c2cc(O[C@H](C)[C@H]3CNC(=O)C3)c3cccnc3c2)cc1OC [8 of WO 2013/014060]
IC50 [1, 5]: 0.643 µM | IC50 [2]: 0.369 µM | IC50 [3]: > 10 µM | microsomal stability Cl [% Qh] [4]: 58 % Qh

COc1cc(-c2cc(O[C@H](C)[C@H]3CNC(=O)C3)c3cccnc3c2)ccc1OC(C)C [10 of WO 2013/014060]
IC50 [1, 5]: 0.271 µM | IC50 [2]: 0.312 µM | IC50 [3]: > 10 µM | microsomal stability Cl [% Qh] [4]: 57 % Qh

COc1cc(-c2cc(O[C@H](C)[C@H]3CNC(=O)C3)c3cccnc3c2)ccc1O [11 of WO 2013/014060]
IC50 [1, 5]: 0.752 µM | IC50 [3]: > 10 µM | microsomal stability Cl [% Qh] [4]: 24 % Qh

C[C@@H](Oc1cc(-c2ccc3ncccc3c2)cc2ncccc12)[C@H]1CNC(=O)C1 [29 of WO 2013/014060]
IC50 [1, 5]: 0.293 µM | IC50 [2]: 0.315 µM | IC50 [3]: > 10 µM | microsomal stability Cl [% Qh] [4]: 44 % Qh

C[C@@H](Oc1cc(-c2ccc3[nH]cnc3c2)cc2ncccc12)[C@H]1CNC(=O)C1 [41 of WO 2013/014060]
IC50 [1, 5]: 0.308 µM | IC50 [2]: 0.505 µM | IC50 [3]: > 10 µM | microsomal stability Cl [% Qh] [4]: 37 % Qh

C[C@@H](Oc1cc(-c2ccc3cnn(C)c3c2)cc2ncccc12)[C@H]1CNC(=O)C1 [42 of WO 2013/014060]
IC50 [1, 5]: 0.63 µM | IC50 [2]: 0.618 µM | IC50 [3]: > 10 µM | microsomal stability Cl [% Qh] [4]: <23 % Qh

C[C@@H](Oc1cc(-c2ccc(CN3CCOCC3)cc2)cc2ncccc12)[C@H]1CNC(=O)C1 [43 of WO 2013/014060]
IC50 [1, 5]: 0.144 µM | IC50 [2]: 0.157 µM | microsomal stability Cl [% Qh] [4]: <23 % Qh

C[C@@H](Oc1nc(-c2ccc(N3CCOCC3)nc2)cc2ncccc12)[C@H]1CNC(=O)C1 [45 of WO 2011/092128]
microsomal stability Cl [% Qh] [4]: 53 % Qh

Cc1cn2cc(-c3cc(O[C@H](C)[C@H]4CNC(=O)C4)c4cccnc4c3)ccc2n1 [61 of WO 2013/014060]
IC50 [1, 5]: 0.25 µM | IC50 [2]: 0.411 µM | IC50 [3]: > 10 µM | microsomal stability Cl [% Qh] [4]: <23 % Qh

C[C@@H](Oc1cc(-c2ccc(C(=O)N3CCN(C)CC3)cc2)cc2ncccc12)[C@H]1CNC(=O)C1 [76 of WO 2013/014060]
IC50 [1, 5]: 0.075 µM | IC50 [2]: 0.169 µM | IC50 [3]: > 10 µM | microsomal stability Cl [% Qh] [4]: <23 % Qh

C[C@@H](Oc1cc(-c2ccc3ncn(C)c3c2)cc2ncccc12)[C@H]1CNC(=O)C1 [81 of WO 2013/014060]
IC50 [1, 5]: 0.949 µM | IC50 [2]: 0.514 µM | IC50 [3]: > 10 µM | microsomal stability Cl [% Qh] [4]: <23 % Qh

C[C@@H](Oc1cc(-c2ccc3c(c2)CNCC3)cc2ncccc12)[C@H]1CNC(=O)C1 [101 of WO 2013/014060]
IC50 [1, 5]: 1.05 µM | IC50 [2]: 0.14 µM | IC50 [3]: > 10 µM | microsomal stability Cl [% Qh] [4]: <23 % Qh

Cc1c(-c2cc(O[C@H](C)[C@H]3CNC(=O)C3)c3cccnc3c2)cnn1C [112 of WO 2013/014060]
microsomal stability Cl [% Qh] [4]: <23 % Qh

CCCn1cc(-c2cc(O[C@H](C)[C@H]3CNC(=O)C3)c3cccnc3c2)cn1 [114 of WO 2013/014060]
microsomal stability Cl [% Qh] [4]: 26 % Qh

CC(C)n1cc(-c2cc(O[C@H](C)[C@H]3CNC(=O)C3)c3cccnc3c2)cn1 [115 of WO 2013/014060]
microsomal stability Cl [% Qh] [4]: <23 % Qh

C[C@@H](Oc1cc(-c2ccc(N3CCOCC3)cc2)cc2nn(C)cc12)[C@H]1CNC(=O)C1 [Example 22, (4R)-4-[(1R)-1-[2-Methyl-6-(4-morpholinophenyl)indazol-4-yl]oxyethyl]-pyrrolidin-2-one]
IC50 [3]: > 10 µM | microsomal stability Cl [% Qh] [4]: 25 % Qh

COc1cc(-c2cc(O[C@H](C)[C@H]3CNC(=O)C3)c3cccnc3c2)cc(OC)c1OC [example 2 of WO2013/014060, reference compound]
IC50 [1, 6]: 16.9 µM | human liver microsomal stability CI [4]: 81 % Qh

COc1cc(-c2cc3ncccc3c(O[C@H](C)[C@H]3CNC(=O)C3)n2)cc(OC)c1Cl [example 8 of WO 2011/092128, reference compound]
IC50 [1, 6]: > 50 µM | human liver microsomal stability CI [4]: 77 % Qh
